SMILES strings stand for the structures.

Common to all, as to type: physicochemical
A short description of series [1]: Stability of the 1-napsylate salt. Conditions: two weeks.
Series [2] can be described thus: Water content of AN-168 by Karl Fischer (KF) titration. As for the experimental part:
(§1) Water absorption and content measurements were carried out using a Karl Fischer (KF) titrator. Karl Fischer titration is a classic method in analytical chemistry that uses calometric titration to determine the moisture content of a sample, which is specific to water. The titration reaction taking place in the presence of a base and 50:50 methanol:dichloromethane as a titration solvent.
The Karl Fischer chemical reaction takes place between iodine and water with the reactants being in a 1 to 1 ratio between iodine and water.
(§2) The accurately weighted samples (near 100 mg) of the tested compound were placed in the titrator to determine the amount of sample required for measuring 10-250 μg of water, and the water content was calculated accordingly.

The nature of series [3]: Stability of AN-168 dry salt by HPLC at 5, 20 and 40° C. As for the experimental part: (§3) HPLC analyses were performed on a Water 2695 Separations Module, using a Luna C18 (2) 50 mm×4.6 mm×3 um column, a 5 μl injection volume and a 2487 dual wavelength detector under the following instrumental conditions: Mobile phase A: 0.1% formic acid; Mobile phase B: acetonitrile; Flow rate: 0.5 ml per minute; Mobile phase gradient: 0.0 minutes 90% A, 10% B, 14.0 minutes 20% A, 80% B, 15.0 minutes 90% A, 10% B and 20.0 minutes 90% A, 10% B; Run time: 20 minutes; Detection: UV at 254 nm; Column temperature: 40° C.
To determine the stability of the HCl salt of the GABA conjugate (AN-168), prepared according to the procedure described in Example 2 above, three samples of the salt were studied by HPLC analyses. Thus, samples of AN-168 as dry salt were kept at 5° C., 20° C. and 40° C. over a period of 24 day and were analyzed by HPLC for determining the appearance of degradation products.

Series [4] in a line: Hygroscopicity of the oxalate salt by Karl Fischer titration. Particulars: open container at room temperature. As for the experimental part:
as §1, §2
(§4) A sample of the oxalate addition salt was kept in an open container at room temperature for a five-week period (about 840 hours) and analyzed thereafter. The hygroscopicity of the oxalate salt was determined by following the water content of the salt using the Karl Fischer (KF) titration analysis method and the chemical stability of the oxalate salt was determined by following the appearance of the degradation product perphenazine in HPLC analysis.

Series [5] can be described thus: Chemical stability of the oxalate salt by HPLC, open container. Conditions: for perphenazine content (HPLC) / purity of the salt (HPLC): open container at room temperature. As for the experimental part:
as §3, §4

Setting [6] is: sealed and open container at room temperature.
Where [7] appears, read: dry salt kept at 5° C., 0 hours.
Where [8] appears, read: dry salt kept at 5° C., 24 hours.
The mark [9] stands for this setting: dry salt kept at 5° C., 48 hours.
[10] abbreviates: dry salt kept at 5° C., 120 hours.
The mark [11] stands for this setting: dry salt kept at 5° C., 144 hours.
The mark [12] stands for this setting: dry salt kept at 5° C., 336 hours.
The mark [13] stands for this setting: dry salt kept at 5° C., 456 hours.
Where [14] appears, read: dry salt kept at 5° C., 504 hours.
Where [15] appears, read: dry salt kept at 5° C., 576 hours.
Setting [16] is: dry salt kept at 20° C., 0 hours.
Setting [17] is: dry salt kept at 20° C., 24 hours.
The mark [18] stands for this setting: dry salt kept at 20° C., 48 hours.
Setting [19] is: dry salt kept at 20° C., 120 hours.
Setting [20] is: dry salt kept at 20° C., 144 hours.
Where [21] appears, read: dry salt kept at 20° C., 336 hours.
Setting [22] is: dry salt kept at 20° C., 456 hours.
Where [23] appears, read: dry salt kept at 20° C., 504 hours.
The mark [24] stands for this setting: dry salt kept at 20° C., 576 hours.
Setting [25] is: dry salt kept at 40° C., 0 hours.
Where [26] appears, read: dry salt kept at 40° C., 24 hours.
Where [27] appears, read: dry salt kept at 40° C., 48 hours.
Where [28] appears, read: dry salt kept at 40° C., 120 hours.
Setting [29] is: dry salt kept at 40° C., 144 hours.
Where [30] appears, read: dry salt kept at 40° C., 336 hours.
The mark [31] stands for this setting: dry salt kept at 40° C., 456 hours.
[32] abbreviates: dry salt kept at 40° C., 504 hours.
Setting [33] is: dry salt kept at 40° C., 576 hours.
[34] abbreviates: end of five-week period (about 840 hours).

Turning to `NCCCC(=O)OCCN1CCN(CCCN2c3ccccc3Sc3ccc(Cl)cc32)CC1.O=S(=O)(O)c1cccc2ccccc12.O=S(=O)(O)c1cccc2ccccc12.O=S(=O)(O)c1cccc2ccccc12` [1-napsylate salt], in series [1] (setting [6]), the degradation to perphenazine result is recorded as “minimal degradation” and the stability in words result is reported as “stable”. For the same compound, in series [1] (stored at both −20° C. and 0° C. under nitrogen in a closed container), the stability in words entry was “highly stable”.

On to `Cl.NCCCC(=O)OCCN1CCN(CCCN2c3ccccc3Sc3ccc(Cl)cc32)CC1` [AN-168, Perphenazine 4-Aminobutyrate Hydrochloride], for which the hygroscopicity result in series [2] (final product) was “hygroscopic”. The “water content (KF)” value came out at 1.05 % weight/weight in series [2] (final product, recrystallized) and 12.5 % weight/weight in series [2] (repeated procedure with additional 2 hours at 40° C.). Besides, the AN-168 % area in series [3] (setting [7]) stood at 98.64 % area; in series [3] (setting [8]), 98.57 % area; in series [3] (setting [9]) it was 98.52 % area; in series [3] (setting [10]), 98.40 % area; in series [3] (setting [11]), 98.13 % area; in series [3] (setting [12]), 97.21 % area. Also, the AN-168 % area stood at 97.95 % area in series [3] (setting [13]); 97.15 % area in series [3] (setting [14]); 96.14 % area in series [3] (setting [15]); 98.64 % area in series [3] (setting [16]); 98.42 % area in series [3] (setting [17]); 98.31 % area in series [3] (setting [18]). In addition, the AN-168 % area in series [3] (setting [19]) was determined as 97.68 % area; in series [3] (setting [20]), 97.26 % area; in series [3] (setting [21]) it was 96.26 % area; in series [3] (setting [22]), 95.58 % area; in series [3] (setting [23]) it was 94.60 % area; in series [3] (setting [24]) it was 93.80 % area. In addition, the AN-168 % area amounted to 98.64 % area in series [3] (setting [25]); 97.97 % area in series [3] (setting [26]); 97.70 % area in series [3] (setting [27]); 96.95 % area in series [3] (setting [28]); 97.03 % area in series [3] (setting [29]); 96.69 % area in series [3] (setting [30]). The AN-168 % area in series [3] (setting [31]) turned out to be 95.55 % area; in series [3] (setting [32]), 95.62 % area; in series [3] (setting [33]) it was 95.55 % area. In addition, the Perphenazine % area is 1.36 % area in series [3] (setting [7]); 1.43 % area in series [3] (setting [8]); 1.48 % area in series [3] (setting [9]); 1.60 % area in series [3] (setting [10]); 1.87 % area in series [3] (setting [11]); 2.03 % area in series [3] (setting [12]). For the same compound, the Perphenazine % area in series [3] (setting [13]) came out at 2.05 % area; in series [3] (setting [14]), 2.85 % area; in series [3] (setting [15]), 3.49 % area; in series [3] (setting [16]), 1.36 % area; in series [3] (setting [17]), 1.58 % area; in series [3] (setting [18]) it was 1.69 % area. Further, the Perphenazine % area in series [3] (setting [19]) was 2.32 % area; in series [3] (setting [20]), 2.74 % area; in series [3] (setting [21]), 3.74 % area; in series [3] (setting [22]), 4.51 % area; in series [3] (setting [23]), 5.40 % area; in series [3] (setting [24]), 5.87 % area. The Perphenazine % area in series [3] (setting [25]) is given as 1.36 % area; in series [3] (setting [26]), 2.03 % area; in series [3] (setting [27]) it was 2.30 % area; in series [3] (setting [28]), 3.05 % area; in series [3] (setting [29]), 2.97 % area; in series [3] (setting [30]), 3.31 % area. In addition, the Perphenazine % area in series [3] (setting [31]) is 4.45 % area; in series [3] (setting [32]), 3.92 % area; in series [3] (setting [33]) it was 4.06 % area. Further, in series [3] (over time, at each of the tested temperatures (5, 20, 40° C.)), the stability in words result was “degraded into perphenazine and GABA and/or underwent trans-esterification to perphenazine and 2-pyrrolidinone”.

In the case of `NCCCC(=O)OCCN1CCN(CCCN2c3ccccc3Sc3ccc(Cl)cc32)CC1.O=C(O)C(=O)O.O=C(O)C(=O)O.O=C(O)C(=O)O` [oxalate addition salt], the “water content (KF)” value in series [4] (setting [34]) is 1.90 weight percents; in series [4] (initial), 1.36 weight percents. Moreover, in series [5] (as compared to the HCl salt (AN-168)), the “stability and hygroscopicity in words” value was “more stable and less hygroscopic”. For the same compound, the results for the “perphenazine content (HPLC)” value in series [5] (setting [34]) and in series [5] (initial) were 1.71% and 0.75%, respectively. Also, the results for the “purity of the salt (HPLC)” value in series [5] (setting [34]) and in series [5] (initial) were 94.61% and 98.05%, respectively.

Values taken from US20090298814A1, “Novel salts of conjugated psychotropic drugs and processes of preparing same” (RAMOT AT TEL AVIV UNIVERISTY LTD, priority 2005, published 2009).
